Square brackets hold non-standard residues; d marks the D form. Peptide text beside a SMILES is read from it.

The text below walks through data of US5925618A, “Peptides useful as somatostatin antagonists” (American Cyanamid Company, priority 1998, dated 1999).

In one assay the target is T1, rat SSTR2 (Rattus norvegicus, UniProt P30680).
T1 construct: expressed in transfected cells; host or cells: GH4C1 rat pituitary tumor cells
T1 sequence (P30680 whole entry): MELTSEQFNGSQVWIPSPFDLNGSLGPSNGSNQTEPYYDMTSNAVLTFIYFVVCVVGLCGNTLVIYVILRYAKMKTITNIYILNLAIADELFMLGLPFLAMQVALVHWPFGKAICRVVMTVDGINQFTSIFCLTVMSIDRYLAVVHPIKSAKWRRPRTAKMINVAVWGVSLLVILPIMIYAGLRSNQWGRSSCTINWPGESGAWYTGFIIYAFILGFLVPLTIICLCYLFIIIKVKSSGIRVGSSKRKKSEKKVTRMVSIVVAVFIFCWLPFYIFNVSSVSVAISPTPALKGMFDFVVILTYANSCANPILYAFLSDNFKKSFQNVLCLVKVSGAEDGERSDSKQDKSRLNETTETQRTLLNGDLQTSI
Put plainly: cAMP accumulation in forskolin-stimulated GH4 C1/SSTR2 cells. It is filed as cell-based. As to conditions: Forskolin 1.25 μM + MK 678 10 nM, no peptide 1. An excerpt:
A primary effect of SRIF upon mammalian cells is the reduction of cyclic adenosine 3',5'-monophosphate(cAMP) levels, via inhibition of adenylyl cyclase. This is the basis of a common assay for SRIF agonists and antagonists, whereby SRIF agonists reduce artificially stimulated cAMP levels, and SRIF antagonists reverse the effect of SRIF. The rat pituitary tumor cell line GH4 C1 predominantly expresses SSTR2, and responds to SRIF and to forskolin, a stimulator of adenylate cyclase (see C. M. Eppler, et al., J. Biol. Chem., 267, 15603-15612, 1992, incorporated herein by reference). A highly sensitive assay for SRIF agonists and antagonists results from additionally transfecting GH4 C1 cells with the cloned rat SSTR2, (see L. A. Price, et al., Molecular and Cellular Biology, 15, 6188-6195, 1995, incorporated herein by reference). This increases the response to SRIF and provides a greater dynamic range for the measurement of SRIF antagonist activity.
Stimulation of cells. GH4 C1 /SSTR2 cells, grown in DMEM with 10% bovine serum, are released from a tissue culture dish by incubation for several minutes at 37° C. with PBS containing 0.5 mM EDTA. Cells are washed in induction buffer (PBS containing 100 μM IBMX (an inhibitor of cAMP breakdown) and 2 mM CaCl2) at room temperature, and resuspended at 2×10^6 /mL in induction buffer. Into each well of a 96-well tray are added 50 μL of a 2× concentration of stimulants in induction buffer. These include (at final concentration) 1.25 μM forskolin, 100 nM SRIF or 10 nM of the SSTR2-selective agonist MK678 and test peptides at various concentrations. To initiate stimulation of the cells, 50 μL (100,000) cells are added to each well, mixed by shaking 10 seconds on a plate shaker and placed at 37° C. for 15 minutes. Stimulation is arrested and cells are lysed by adding 15 μL 0.33N HCl to each well and incubating the plate for 30 minutes at 37° C. Samples are neutralized by addition of 15 μL 0.25N NaOH/50 mM Hepes pH 7.4. Baseline cAMP levels are determined in samples with no added forskolin or SRIF, and each treatment is performed in triplicate.
cAMP assay. To measure accumulated cAMP in the samples, a radioimmunoassay is employed. The scintillation proximity assay (SPA, Amersham, Arlington Heights, Ill.) allows the rapid measurement of ^125 I cAMP bound to a specific antibody without separating bound radioligand from free radioligand. Each of the following reagents (50 μL) are added per well in a 96-well tray: supernatants from the cell stimulation; ^125 I cAMP; SPA beads conjugated to monkey anti-rabbit IgG antibodies; and rabbit anti-cAMP antibodies. For the standard curve, known amounts of cAMP (0.2-12.8 pmol) are added in place of cell supernatants. The 96-well tray is sealed, shaken at room temperature overnight and measured for bound radioligand in a MicroBeta liquid scintillation counter (Wallac, Gaithersburg, Md.). The standard curve is determined for each experiment by performing a nonlinear regression (exponential decay) analysis of cpm measured for the cAMP standards vs. their log concentrations, and test sample values are determined by using Prism software (Graphpad Software Inc., San Diego, Calif.) and are shown in Table II and FIG. 1. FIG. I illustrates the antagonist activity of Peptide 1.
The intrinsic activity of an SRIF antagonist is the percent reversal of the SSTR2, activation by SRIF or MK678, wherein 0% is defined by cAMP levels in samples treated with forskolin plus SRIF or MK678 and 100% is the cAMP level measured after treatment with forskolin alone. Therefore, increased intrinsic activity of a test compound indicates increased antagonist activity of said test compound.
FIG. […]
An inverse agonist is a compound that is not only a pure antagonist (i.e. lacking agonist activity), but also blocks the constitutive activity of an unoccupied receptor. One indication of inverse agonist activity is the ability of a SRIF antagonist to increase cAMP levels in the absence of added SRIF. […]
Background: Cyclic AMP is a second messenger, typically raised through Gs and lowered through Gi signalling.
`CC(C)[C@@H]1NC(=O)[C@H](CCCCN)NC(=O)[C@@H](Cc2c[nH]c3ccccc23)NC(=O)[C@H](Cc2ccc(O)cc2)NC(=O)[C@H](C)N(C)C(=O)[C@H](Cc2ccccc2)NC1=O` [MK678, reference compound]: the cAMP worked out at 0.91 pM per 4 × 10^4 cells.

The assay is the same for the next values; noted with them: Forskolin 1.25 μM alone.
Take `C=C[C@@]1(C)CC(=O)[C@]2(O)[C@@]3(C)[C@@H](O)CCC(C)(C)[C@@H]3[C@H](O)[C@H](OC(C)=O)[C@@]2(C)O1` [Forskolin, forskolin, reference compound]: the cAMP is on record as 3.04 pM per 4 × 10^4 cells.

Staying with this assay, now noted: GH4-C1; test peptide 2 μM; read-out: cAMP Assay, Intrinsic activity (percent reversal of SSTR2 activation by SRIF or MK678).
For `CC[C@@H](C)[C@@H](NC(=O)[C@@H](Cc1ccccc1)NC(=O)[C@@H](C)NC(C)=O)C(=O)N[C@H](CCCNC(=N)N)C(=O)N[C@H](Cc1c[nH]c2ccccc12)C(=O)N[C@H](Cc1ccccc1)C(N)=O` [Peptide 2, a-f-i-r-w-f] (Ac-[dA][dF][dI][dR][dW][dF]-NH2), the Emax was 13%. Still for that read-out and setting: the figure for `CC[C@@H](C)[C@@H](NC(=O)[C@@H](C)NC(=O)[C@@H](Cc1c[nH]cn1)NC(C)=O)C(=O)N[C@H](CCCNC(=N)N)C(=O)N[C@H](Cc1c[nH]c2ccccc12)C(=O)N[C@H](Cc1ccccc1)C(N)=O` [Peptide 3, h-a-i-r-w-f] (Ac-[dH][dA][dI][dR][dW][dF]-NH2) is 9.33%. For `CC(=O)N[C@H](Cc1c[nH]cn1)C(=O)N[C@H](Cc1ccccc1)C(=O)N[C@H](C)C(=O)N[C@H](CCCNC(=N)N)C(=O)N[C@H](Cc1c[nH]c2ccccc12)C(=O)N[C@H](Cc1ccccc1)C(N)=O` [Peptide 4, h-f-a-r-w-f] (Ac-[dH][dF][dA][dR][dW][dF]-NH2), the Emax was found to be 41.8%. Still for that read-out and setting: the figure for `CC[C@@H](C)[C@@H](NC(=O)[C@@H](Cc1ccccc1)NC(=O)[C@@H](Cc1c[nH]cn1)NC(C)=O)C(=O)N[C@H](C)C(=O)N[C@H](Cc1c[nH]c2ccccc12)C(=O)N[C@H](Cc1ccccc1)C(N)=O` [Peptide 5, h-f-i-a-w-f] (Ac-[dH][dF][dI][dA][dW][dF]-NH2) is 44.1%; for `CC[C@@H](C)[C@@H](NC(=O)[C@@H](Cc1ccccc1)NC(=O)[C@@H](Cc1c[nH]cn1)NC(C)=O)C(=O)N[C@H](CCCNC(=N)N)C(=O)N[C@H](C)C(=O)N[C@H](Cc1ccccc1)C(N)=O` [Peptide 6, h-f-i-r-a-f] (Ac-[dH][dF][dI][dR][dA][dF]-NH2) it is 13.4%; for `CC[C@@H](C)[C@@H](NC(=O)[C@@H](Cc1ccccc1)NC(C)=O)C(=O)N[C@H](CCCNC(=N)N)C(=O)N[C@H](Cc1c[nH]c2ccccc12)C(=O)N[C@H](Cc1ccccc1)C(N)=O` [Peptide 7, f-i-r-w-f] (Ac-[dF][dI][dR][dW][dF]-NH2) it is -7.2%. For `CC[C@@H](C)[C@@H](NC(=O)[C@@H](Cc1c[nH]cn1)NC(C)=O)C(=O)N[C@H](CCCNC(=N)N)C(=O)N[C@H](Cc1c[nH]c2ccccc12)C(=O)N[C@H](Cc1ccccc1)C(N)=O` [Peptide 8, h-i-r-w-f] (Ac-[dH][dI][dR][dW][dF]-NH2), the Emax stood at 2.76%. Consider `CC(=O)N[C@H](Cc1c[nH]cn1)C(=O)N[C@H](Cc1ccccc1)C(=O)N[C@H](CCCNC(=N)N)C(=O)N[C@H](Cc1c[nH]c2ccccc12)C(=O)N[C@H](Cc1ccccc1)C(N)=O` [Peptide 9, h-f-r-w-f] (Ac-[dH][dF][dR][dW][dF]-NH2), for which the Emax was 6.36%. Turning to `CC[C@@H](C)[C@@H](NC(=O)[C@@H](Cc1ccccc1)NC(=O)[C@@H](Cc1c[nH]cn1)NC(C)=O)C(=O)N[C@H](Cc1c[nH]c2ccccc12)C(=O)N[C@H](Cc1ccccc1)C(N)=O` [Peptide 10, h-f-i-w-f] (Ac-[dH][dF][dI][dW][dF]-NH2), the Emax was determined as 25.3%. On the same count and under the same terms, the figure for `CC[C@@H](C)[C@@H](NC(=O)[C@@H](Cc1ccccc1)NC(=O)[C@@H](Cc1c[nH]cn1)NC(C)=O)C(=O)N[C@H](CCCNC(=N)N)C(=O)N[C@H](Cc1ccccc1)C(N)=O` [Peptide 11, h-f-i-r-f] (Ac-[dH][dF][dI][dR][dF]-NH2) is 12.1%; for `CC[C@@H](C)[C@@H](NC(=O)[C@@H](Cc1ccccc1)NC(=O)[C@@H](Cc1c[nH]cn1)NC(C)=O)C(=O)N[C@H](CCCNC(=N)N)C(=O)N[C@H](Cc1c[nH]c2ccccc12)C(N)=O` [Peptide 12, h-f-i-r-w] (Ac-[dH][dF][dI][dR][dW]-NH2) it is 29.1%. On the same count and under the same terms, the value for `CC[C@@H](C)[C@@H](NC(=O)[C@@H](Cc1ccccc1)NC(=O)[C@H](Cc1c[nH]cn1)NC(C)=O)C(=O)N[C@H](CCCNC(=N)N)C(=O)N[C@H](Cc1c[nH]c2ccccc12)C(=O)N[C@H](Cc1ccccc1)C(N)=O` [Peptide 13, H-f-i-r-w-f] (Ac-H[dF][dI][dR][dW][dF]-NH2) was 26.2%; that for `CC[C@@H](C)[C@@H](NC(=O)[C@H](Cc1ccccc1)NC(=O)[C@@H](Cc1c[nH]cn1)NC(C)=O)C(=O)N[C@H](CCCNC(=N)N)C(=O)N[C@H](Cc1c[nH]c2ccccc12)C(=O)N[C@H](Cc1ccccc1)C(N)=O` [Peptide 14, h-F-i-r-w-f] (Ac-[dH]F[dI][dR][dW][dF]-NH2) was 29.6%; that for `CC[C@H](C)[C@H](NC(=O)[C@@H](Cc1ccccc1)NC(=O)[C@@H](Cc1c[nH]cn1)NC(C)=O)C(=O)N[C@H](CCCNC(=N)N)C(=O)N[C@H](Cc1c[nH]c2ccccc12)C(=O)N[C@H](Cc1ccccc1)C(N)=O` [Peptide 15, h-f-I-r-w-f] (Ac-[dH][dF]I[dR][dW][dF]-NH2) was 9.71%. For `CC[C@@H](C)[C@@H](NC(=O)[C@@H](Cc1ccccc1)NC(=O)[C@@H](Cc1c[nH]cn1)NC(C)=O)C(=O)N[C@@H](CCCNC(=N)N)C(=O)N[C@H](Cc1c[nH]c2ccccc12)C(=O)N[C@H](Cc1ccccc1)C(N)=O` [Peptide 16, h-f-i-R-w-f] (Ac-[dH][dF][dI]R[dW][dF]-NH2), the Emax turned out to be 43.6%. The same measure, in the same setting: the value for `CC[C@@H](C)[C@@H](NC(=O)[C@@H](Cc1ccccc1)NC(=O)[C@@H](Cc1c[nH]cn1)NC(C)=O)C(=O)N[C@H](CCCNC(=N)N)C(=O)N[C@@H](Cc1c[nH]c2ccccc12)C(=O)N[C@H](Cc1ccccc1)C(N)=O` [Peptide 17, h-f-i-r-W-f] (Ac-[dH][dF][dI][dR]W[dF]-NH2) was 50.2%. In the case of `CC[C@@H](C)[C@@H](NC(=O)[C@@H](Cc1ccccc1)NC(=O)[C@@H](Cc1c[nH]cn1)NC(C)=O)C(=O)N[C@H](CCCNC(=N)N)C(=O)N[C@H](Cc1c[nH]c2ccccc12)C(=O)N[C@@H](Cc1ccccc1)C(N)=O` [Peptide 18, h-f-i-r-w-F] (Ac-[dH][dF][dI][dR][dW]F-NH2), the Emax turned out to be 46.7%. The same measure, in the same setting: the figure for `CC[C@@H](C)[C@@H](NC(=O)[C@@H](Cc1ccc(O)cc1)NC(=O)[C@@H](CCCCN)NC(C)=O)C(=O)N[C@H](CCCNC(=N)N)C(=O)N[C@H](Cc1c[nH]c2ccccc12)C(=O)N[C@H](Cc1ccccc1)C(N)=O` [Peptide 19, k-y-i-r-w-f] (Ac-[dK][dY][dI][dR][dW][dF]-NH2) is 33.3%; for `CC[C@@H](C)[C@@H](NC(=O)[C@@H](Cc1ccc(O)cc1)NC(=O)[C@@H](Cc1c[nH]cn1)NC(C)=O)C(=O)N[C@H](CCCNC(=N)N)C(=O)N[C@H](Cc1c[nH]c2ccccc12)C(=O)N[C@H](Cc1ccccc1)C(N)=O` [Peptide 20, h-y-i-r-w-f] (Ac-[dH][dY][dI][dR][dW][dF]-NH2) it is 56.5%.

Still in this assay, the particulars now being: forskolin stimulated cells; agonist alone or with 10 μM peptide 1.
`CC(C)[C@@H]1NC(=O)[C@H](CCCCN)NC(=O)[C@@H](Cc2c[nH]c3ccccc23)NC(=O)[C@H](Cc2ccc(O)cc2)NC(=O)[C@H](C)N(C)C(=O)[C@H](Cc2ccccc2)NC1=O` [MK678, reference compound]: the “Maximum (cAMP level of agonist dose response)” value stood at 6.431 and the “Minimum (cAMP level of agonist dose response)” value turned out to be 2.673.
